Test results as given in the supplement of paper PMC10307832.

How the values were obtained:
Assay in all cases: relative viability (nuclei count vs DMSO), 5 days (fraction); higher = more cells survive
[1] = tested on: COR-L 105
How it was run: (§1)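 Relative viability was taken as the ratio of nuclei in treated wells to nuclei in vehicle wells. Lung cancer cell lines in 1536-well plates received compounds by pin tool one day after seeding, either one drug alone or a fixed anchor-drug dose plus five library-drug doses (not always all listed) in √10 steps. Nuclei were counted on 4× images after 5 days of treatment, and values are medians of duplicate plates.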

[2] = tested on: HCC-366
How it was run: as §1

[3] = tested on: PC-3 [JPC-3]
How it was run: as §1

[4] = tested on: SW 900
How it was run: as §1

[5] = tested on: NCI-H1734
How it was run: as §1

[6] = tested on: LK-2
How it was run: as §1

[7] = tested on: LOU-NH91
How it was run: as §1

[8] = tested on: NCI-H1755
How it was run: as §1

[9] = tested on: NCI-H23
How it was run: as §1

[10] = tested on: NCI-H1975
How it was run: as §1

[11] = tested on: A-427
How it was run: as §1

[12] = tested on: SK-MES-1
How it was run: as §1

[13] = tested on: H3255
How it was run: as §1

[14] = tested on: ChaGo-K-1
How it was run: as §1

[15] = tested on: NCI-H441
How it was run: as §1

[16] = tested on: NCI-H596
How it was run: as §1

[17] = tested on: NCI-H1666
How it was run: as §1

[18] = tested on: EMC-BAC-2
How it was run: as §1

[19] = tested on: EKVX
How it was run: as §1

[20] = tested on: NCI-H2170
How it was run: as §1

[21] = tested on: NCI-H520
How it was run: as §1

COc1nc(C)cnc1NS(=O)(=O)c1cccnc1-c1ccc(-c2nnco2)cc1 [Zibotentan] + Nc1ncn([C@H]2C[C@H](O)[C@@H](CO)O2)c(=O)n1 [Decitabine] (partner 2 µM)
relative viability ([1]; first compound 0.08 µM): 0.634
relative viability ([1]; first compound 0.253 µM): 0.609
relative viability ([1]; first compound 0.8 µM): 0.711
relative viability ([1]; first compound 2.53 µM): 0.615
relative viability ([2]; first compound 0.08 µM): 0.391
relative viability ([2]; first compound 0.253 µM): 0.317
relative viability ([2]; first compound 0.8 µM): 0.331
relative viability ([2]; first compound 2.53 µM): 0.358
relative viability ([3]; first compound 0.08 µM): 0.836
relative viability ([3]; first compound 0.253 µM): 0.777
relative viability ([3]; first compound 0.8 µM): 0.85
relative viability ([3]; first compound 2.53 µM): 0.851
relative viability ([4]; first compound 0.08 µM): 0.482
relative viability ([4]; first compound 0.253 µM): 0.345
relative viability ([4]; first compound 0.8 µM): 0.49
relative viability ([4]; first compound 2.53 µM): 0.438
relative viability ([5]; first compound 0.08 µM): 0.486
relative viability ([5]; first compound 0.253 µM): 0.496
relative viability ([5]; first compound 0.8 µM): 0.513
relative viability ([5]; first compound 2.53 µM): 0.541
relative viability ([6]; first compound 0.08 µM): 0.387
relative viability ([6]; first compound 0.253 µM): 0.289
relative viability ([6]; first compound 0.8 µM): 0.317
relative viability ([6]; first compound 2.53 µM): 0.213
relative viability ([7]; first compound 0.08 µM): 0.799
relative viability ([7]; first compound 0.253 µM): 0.78
relative viability ([7]; first compound 0.8 µM): 0.879
relative viability ([7]; first compound 2.53 µM): 0.815
relative viability ([8]; first compound 0.08 µM): 0.737
relative viability ([8]; first compound 0.253 µM): 0.616
relative viability ([8]; first compound 0.8 µM): 0.8
relative viability ([8]; first compound 2.53 µM): 0.732
relative viability ([9]; first compound 0.08 µM): 0.321
relative viability ([9]; first compound 0.253 µM): 0.286
relative viability ([9]; first compound 0.8 µM): 0.34
relative viability ([9]; first compound 2.53 µM): 0.38
relative viability ([10]; first compound 0.08 µM): 0.565
relative viability ([10]; first compound 0.253 µM): 0.384
relative viability ([10]; first compound 0.8 µM): 0.403
relative viability ([10]; first compound 2.53 µM): 0.377
relative viability ([11]; first compound 0.08 µM): 0.537
relative viability ([11]; first compound 0.253 µM): 0.542
relative viability ([11]; first compound 0.8 µM): 0.613
relative viability ([11]; first compound 2.53 µM): 0.582
relative viability ([12]; first compound 0.08 µM): 0.389
relative viability ([12]; first compound 0.253 µM): 0.285
relative viability ([12]; first compound 0.8 µM): 0.447
relative viability ([12]; first compound 2.53 µM): 0.365
relative viability ([13]; first compound 0.08 µM): 0.671
relative viability ([13]; first compound 0.253 µM): 0.601
relative viability ([13]; first compound 0.8 µM): 0.586
relative viability ([13]; first compound 2.53 µM): 0.564
relative viability ([14]; first compound 0.08 µM): 0.512
relative viability ([14]; first compound 0.253 µM): 0.493
relative viability ([14]; first compound 0.8 µM): 0.508
relative viability ([14]; first compound 2.53 µM): 0.55
relative viability ([15]; first compound 0.08 µM): 0.244
relative viability ([15]; first compound 0.253 µM): 0.273
relative viability ([15]; first compound 0.8 µM): 0.264
relative viability ([15]; first compound 2.53 µM): 0.225
relative viability ([16]; first compound 0.08 µM): 0.992
relative viability ([16]; first compound 0.253 µM): 0.911
relative viability ([16]; first compound 0.8 µM): 1.06
relative viability ([16]; first compound 2.53 µM): 1.04
relative viability ([17]; first compound 0.08 µM): 0.71
relative viability ([17]; first compound 0.253 µM): 0.685
relative viability ([17]; first compound 0.8 µM): 0.745
relative viability ([17]; first compound 2.53 µM): 0.56
relative viability ([18]; first compound 0.08 µM): 1.01
relative viability ([18]; first compound 0.8 µM): 0.968
relative viability ([18]; first compound 2.53 µM): 1.01
relative viability ([19]; first compound 0.08 µM): 0.325
relative viability ([19]; first compound 0.253 µM): 0.339
relative viability ([19]; first compound 0.8 µM): 0.286
relative viability ([19]; first compound 2.53 µM): 0.346
relative viability ([20]; first compound 0.08 µM): 0.449
relative viability ([20]; first compound 0.253 µM): 0.463
relative viability ([20]; first compound 0.8 µM): 0.341
relative viability ([20]; first compound 2.53 µM): 0.463
relative viability ([21]; first compound 0.08 µM): 0.62
relative viability ([21]; first compound 0.253 µM): 0.441
relative viability ([21]; first compound 0.8 µM): 0.514
relative viability ([21]; first compound 2.53 µM): 0.575
